Source: patent publication US20010031768A1, “Triazole antifungal agent” (SANKYO COMPANY LIMITED, priority 1995, published 2001)
Like-named read-outs stand apart in the source and are kept apart here.

Tested on: Candida albicans
Assay: Survival of mice infected with Candida albicans after oral administration
Format: in vivo
Conditions: for responders at 20 mg/kg: po
Protocol: To mice (one group consisting of 10 mice), which were innoculated with 4 to 9×10^6 Candida albicans, were administered orally 20 mg/kg of preparations after 1, 4 and 24 hours, and thereafter the survival rate until 21 days after infection was examined.

[1] = 336 h, mice inoculated with 4 to 9×10^6 Candida albicans, 20 mg/kg orally after 1, 4 and 24 hours, 14 days after infection, read-out: Survival rate % 14 days
[2] = 504 h, mice inoculated with 4 to 9×10^6 Candida albicans, 20 mg/kg orally after 1, 4 and 24 hours, 21 days after infection, read-out: Survival rate % 21 days

## CC(C)(SC1COC(/C=C/c2ccc(C(F)(F)F)cc2)OC1)C(O)(Cn1cncn1)c1ccc(C(F)(F)F)cc1 (racemic) [Example 30, (RS)-3-Methyl-1-(1 H-1,2,4-triazol-1-yl)-2-[4-(trifluoromethyl)phenyl]-3-[[trans-2-[(E)-2-[4-(trifluoromethyl)phenyl]vinyl]-1,3-dioxan-5-yl]thio]-2-butanol]
[1]
  responders at 20 mg/kg: 100%
[2]
  responders at 20 mg/kg: 100%

## C[C@@H](S[C@H]1CO[C@H](/C=C/c2ccc(C(F)(F)F)cc2)OC1)[C@](O)(Cn1cncn1)c1ccc(F)cc1F [Example 2, (2R,3R)-2-(2,4-Difluorophenyl)-3-[[trans-2-[(E)-2-[4-(trifluoromethyl)phenyl]vinyl]-1,3-dioxan-5-yl]thio]-1-(1 H-1,2,4-triazol-1-yl)-2-butanol]
[1]
  responders at 20 mg/kg: 100%
[2]
  responders at 20 mg/kg: 100%

## C[C@@H](S[C@H]1CO[C@H](/C=C/c2ccc(OC(F)(F)F)cc2)OC1)[C@](O)(Cn1cncn1)c1ccc(F)cc1F [Example 11, (2R,3R)-2-(2,4-Difluorophenyl)-1-(1 H-1,2,4-triazol-1-yl)-3-[[trans-2-[(E)-2-[4-(trifluoromethoxy)phenyl]vinyl]-1,3-dioxan-5-yl]thio]-2-butanol]
[1]
  responders at 20 mg/kg: 100%
[2]
  responders at 20 mg/kg: 100%

## C[C@@H](S[C@H]1CO[C@H](/C=C/C=C/c2ccc(C(F)(F)F)cc2)OC1)[C@](O)(Cn1cncn1)c1ccc(F)cc1F [Example 15, (2R,3R)-2-(2,4-Difluorophenyl)-1-(1 H-1,2,4-triazol-1-yl) -3-[[trans-2-[(1 E,3 E)-4-[4-(trifluoromethyl)phenyl]-1,3-butadien-1-yl]-1,3-dioxan-5-yl]thio]-2-butanol]
[1]
  responders at 20 mg/kg: 100%
[2]
  responders at 20 mg/kg: 100%

## C[C@@H](S[C@H]1CO[C@H](/C=C/C=C/c2ccc(OCC(F)(F)C(F)F)cc2)OC1)[C@](O)(Cn1cncn1)c1ccc(F)cc1F [Example 16, (2R,3R)-2-(2,4-Difluorophenyl)-3-[[trans-2-[(1 E,3 E)-4-[4-(2,2,3,3-tetrafluoropropoxy)phenyl]-1,3-butadien-1-yl]-1,3-dioxan-5-yl]thio]-1-(1 H-1,2,4-triazol-1-yl)-2-butanol]
[1]
  responders at 20 mg/kg: 100%
[2]
  responders at 20 mg/kg: 100%

## C[C@@H](S[C@H]1CO[C@H](/C=C/C=C(/c2ccc(Cl)cc2)C(F)(F)F)OC1)[C@](O)(Cn1cncn1)c1ccc(F)cc1F [Example 18, (2R,3R) -2-(2,4-Difluorophenyl)-3-[[trans-2-[(1 E,3 Z)-4-(4-chlorophenyl)-5,5,5-trifluoro-1,3-pentadien-1-yl]-1,3-dioxan-5-yl]thio]-1-(1 H-1,2,4-triazol-1-yl)-2-butanol]
[1]
  responders at 20 mg/kg: 100%
[2]
  responders at 20 mg/kg: 100%

## C[C@@H](SC1CCN(C(=O)/C=C/c2ccc(OC(F)(F)F)cc2)CC1)[C@](O)(Cn1cncn1)c1ccc(F)cc1F [Example 21, (2R,3R)-2-(2,4-Difluorophenyl) -3-[[1-[(E)-4-(trifluoromethoxy)cinaamoyl]piperidin-4-yl]thio]-1-(1 H-1,2,4-triazol-1-yl)-2-butanol]
Mice inoculated with 4 to 9×10^6 Candida albicans, 20 mg/kg orally after 1, 4 and 24 hours, 14 days after infection
  Survival rate % 14 days: 100%
Mice inoculated with 4 to 9×10^6 Candida albicans, 20 mg/kg orally after 1, 4 and 24 hours, 21 days after infection
  Survival rate % 21 days: 60%

## C[C@@H](S[C@H]1CO[C@H](/C=C/C=C/c2ccc(SC(F)(F)F)cc2)OC1)[C@](O)(Cn1cncn1)c1ccc(F)cc1F [Example 32, (2R,3R)-2-(2,4-Difluorophenyl)-1-(1 H-1,2,4-triazol-1-yl)-3-[[trans-2-[(1E, 3E) -4-[4-(trifluoromethylthio)phenyl]-1,3-butadien-1-yl]-1,3-dioxan-5-yl]thio]-2-butanol]
[1]
  responders at 20 mg/kg: 100%
[2]
  responders at 20 mg/kg: 100%

## C[C@@H](S[C@H]1CO[C@H](/C=C/C=C/c2ccc([S+]([O-])C(F)(F)F)cc2)OC1)[C@](O)(Cn1cncn1)c1ccc(F)cc1F (stereo partly drawn) [Example 35, (2R,3R)-2-(2,4-Difluorophenyl)-1-(1 H-1,2,4-triazol-1-yl)-3-[[trans-2-[(1E,3E)-4-[4-(trifluoromethylsulfinyl)phenyl]-1,3-butadien-1-yl]-1,3-dioxan-5-yl]thio]-2-butanol]
[1]
  responders at 20 mg/kg: 100%
[2]
  responders at 20 mg/kg: 100%

## CC(SC1COC(/C=C/C=C/C=C/c2ccc(C(F)(F)F)cc2)OC1)C(O)(Cn1cncn1)c1ccc(F)cc1F [Example 37, (2R,3R)-2-(2,4-Difluorophenyl)-1-(1 H-1,2,4-triazol-1-yl)-3-[[trans-2-[(1E,3E,5E)-6-[4-(trifluoromethyl)phenyl]-1,3,5-hexatrien-1-yl]-1,3-dioxam-5-yl]thio]-2-butanol]
[1]
  responders at 20 mg/kg: 100%
[2]
  responders at 20 mg/kg: 100%

## OC(Cn1cncn1)(Cn1cncn1)c1ccc(F)cc1F [Fluconazol, reference compound]
Candida albicans, 336 h, read-out: Survival rate % 14 days
  responders at 20 mg/kg: 70%
Candida albicans, 504 h, read-out: Survival rate % 21 days
  responders at 20 mg/kg: 60%
